# Experimental data reported in ChEMBL document CHEMBL6096675 (J Med Chem, 2025).
# The source made the active and inactive calls. The calls are words filed in the database; no cut-off is given here.
# Tests used:
# [1] = Plasma concentration in SCID mouse xenografted with human NCI-H838 cells at 10 mg/kg, iv measured after 96 hrs by LC-MS/MS analysis; type: ADME, organism-based
# [2] = Drug uptake in tumor of human NCI-H838 cells xenografted SCID mouse model at 10 mg/kg, iv measured after 24 hrs by LC-MS/MS analysis; type: ADME, organism-based, Neoplasm; conditions: read-out: Drug uptake
# [3] = Drug uptake in tumor of human NCI-H838 cells xenografted SCID mouse model at 10 mg/kg, iv measured after 96 hrs by LC-MS/MS analysis; type: ADME, organism-based, Neoplasm; conditions: read-out: Drug uptake
# [4] = Drug uptake in tumor of human NCI-H838 cells xenografted SCID mouse model at 10 mg/kg, iv measured after 168 hrs by LC-MS/MS analysis; type: ADME, organism-based, Neoplasm; conditions: read-out: Drug uptake
# [5] = biological target: SWI/SNF-related matrix-associated actin-dependent regulator of chromatin subfamily A member 2 (Homo sapiens, UniProt P51531); experiment: Inhibition of human SMARCA2 by TR-FRET assay
# SK-MEL-5 = experiment: Antiproliferative activity against human SMARCA4-deficient SK-MEL-5 cells assessed as inhibition of cell growth measured after 7 days by WST-8 assay; type: functional; conditions: SK-MEL-5, 168 h, time 7 day
# [6] = Antiproliferative activity against human SMARCA4-deficient NCI-H1568 cells assessed as inhibition of cell growth measured after 7 days by WST-8 assay; type: functional; conditions: NCI-H1568, 168 h, time 7 day
# [7] = Antiproliferative activity against human SMARCA4-deficient NCI-H1944 cells assessed as inhibition of cell growth measured after 7 days by WST-8 assay; type: functional; conditions: NCI-H1944, 168 h, time 7 day
# [8] = Antiproliferative activity against human SMARCA4-deficient NCI-H1693 cells assessed as inhibition of cell growth measured after 7 days by WST-8 assay; type: functional; conditions: NCI-H1693, 168 h, time 7 day
# SK-MEL-28 [9] = experiment: Antiproliferative activity against human SMARCA4-wild type SK-MEL-28 cells assessed as inhibition of cell growth measured after 7 days by WST-8 assay; type: functional; conditions: SK-MEL-28, 168 h, time 7 day
# [10] = Antiproliferative activity against human […] NCI-H1975 cells assessed as inhibition of cell growth measured after 7 days by WST-8 assay; type: functional; conditions: NCI-H1975, 168 h, time 7 day
# [11] = Antiproliferative activity against human SMARCA4-deficient NCI-H838 cells assessed as maximal inhibition of cell growth measured after 7 days by WST-8 assay relative to control; type: functional; conditions: time 7 day
# [12] = Antiproliferative activity against human SMARCA4-deficient NCI-H1568 cells assessed as maximal inhibition of cell growth measured after 7 days by WST-8 assay relative to control; type: functional; conditions: time 7 day
# [13] = Antiproliferative activity against human SMARCA4-deficient NCI-H1944 cells assessed as maximal inhibition of cell growth measured after 7 days by WST-8 assay relative to control; type: functional; conditions: time 7 day
# NCI-H1792 = experiment: Antiproliferative activity against human SMARCA4-wild type NCI-H1792 cells assessed as maximal inhibition of cell growth measured after 7 days by WST-8 assay relative to control; type: functional; conditions: time 7 day
# SK-MEL-28 [14] = experiment: Antiproliferative activity against human SMARCA4-wild type SK-MEL-28 cells assessed as maximal inhibition of cell growth measured after 7 days by WST-8 assay relative to control; type: functional; conditions: time 7 day
# [15] = Antiproliferative activity against human […] NCI-H1975 cells assessed as maximal inhibition of cell growth measured after 7 days by WST-8 assay relative to control; type: functional; conditions: time 7 day
# [16] = Half life in mouse at 1 mg/kg, iv; type: ADME, organism-based; conditions: in vivo
# [17] = Cmax in mouse at 1 mg/kg, iv; type: ADME, organism-based; conditions: in vivo
# [18] = Half life in rat at 1 mg/kg, iv; type: ADME, organism-based; conditions: in vivo
# [19] = Volume of distribution of steady state in rat at 1 mg/kg, iv; type: ADME, organism-based; conditions: in vivo, read-out: Vdss
# [20] = Clearance in rat at 1 mg/kg, iv; type: ADME, organism-based; conditions: in vivo
# [21] = Drug uptake in tumor of mouse xenografted with human H838 cells at 10 mg/kg, iv single dose measured after 6 hrs by LC-MS/MS analysis; type: ADME, organism-based, Neoplasm, NCI-H838; conditions: read-out: Drug uptake
# [22] = Drug uptake in tumor of mouse xenografted with human H838 cells at 10 mg/kg, iv single dose measured after 168 hrs by LC-MS/MS analysis; type: ADME, organism-based, Neoplasm, NCI-H838; conditions: read-out: Drug uptake
# [23] = Plasma concentration in mouse xenografted with human MV4-11 cells at 30 mg/kg, iv single dose measured after 24 hrs by LC-MS/MS analysis; type: ADME, organism-based
# [24] = Plasma concentration in mouse xenografted with human MV4-11 cells at 30 mg/kg, iv single dose measured after 168 hrs by LC-MS/MS analysis; type: ADME, organism-based
# [25] = Drug uptake in tumor of mouse xenografted with human MV4-11 cells at 30 mg/kg, iv single dose measured after 96 hrs by LC-MS/MS analysis; type: ADME, organism-based, Neoplasm; conditions: read-out: Drug uptake
# [26] = Metabolic stability in mouse liver microsomes assessed as half life; type: ADME, Microsome
# [27] = Plasma stability in mouse plasma assessed as half life; type: ADME, cell-free
# [28] = Plasma stability in rat plasma assessed as half life; type: ADME, cell-free
# Cytochrome P450 1A2 = biological target: T1, Cytochrome P450 1A2 (Homo sapiens, UniProt P05177); experiment: Inhibition of CYP1A2 (unknown origin); type: ADME
# T1 sequence (P05177 whole entry): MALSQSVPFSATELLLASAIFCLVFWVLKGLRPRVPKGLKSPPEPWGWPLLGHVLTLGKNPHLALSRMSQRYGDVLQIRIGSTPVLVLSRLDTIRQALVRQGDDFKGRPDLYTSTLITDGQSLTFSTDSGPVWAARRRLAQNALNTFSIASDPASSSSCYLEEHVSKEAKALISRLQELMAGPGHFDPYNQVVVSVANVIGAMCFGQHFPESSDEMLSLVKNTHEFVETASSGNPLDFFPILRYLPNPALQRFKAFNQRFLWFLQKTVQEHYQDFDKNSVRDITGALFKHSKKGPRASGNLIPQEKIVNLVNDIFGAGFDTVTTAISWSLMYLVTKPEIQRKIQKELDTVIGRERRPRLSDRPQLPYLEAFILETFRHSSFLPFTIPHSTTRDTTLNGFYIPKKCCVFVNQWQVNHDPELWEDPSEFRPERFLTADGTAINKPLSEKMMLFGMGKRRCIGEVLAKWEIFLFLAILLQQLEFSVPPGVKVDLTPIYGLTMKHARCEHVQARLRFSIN
# Cytochrome P450 2C9 = Cytochrome P450 2C9 (Homo sapiens, UniProt P11712); experiment: Inhibition of CYP2C9 (unknown origin); type: ADME
# Cytochrome P450 3A4 = Cytochrome P450 3A4 (Homo sapiens, UniProt P08684); experiment: Inhibition of CYP3A4 (unknown origin) using midazolam as substrate; type: ADME
# [29] = Toxicity in SCID mouse xenografted with human H838 cells assessed as body weight loss at 30 mg/kg, iv measured after 3 weeks; type: organism-based; conditions: in vivo, 504 h
# [30] = Toxicity in SCID mouse xenografted with human H838 cells assessed as toxicity signs at 30 mg/kg, iv measured after 3 weeks; type: organism-based; conditions: in vivo, 504 h
# NCI-H838 = experiment: In vivo anti-tumor activity against human NCI-H838 cells xenografted in SCID mouse assessed as assessed as inhibition of tumor growth at 10 mg/kg, iv treated for 3 weeks measured after treatment stop; type: functional, organism-based
# SWI/SNF-related matrix-associated actin-dependent regulator of chromatin subfamily A member 2, sequence (P51531 whole entry): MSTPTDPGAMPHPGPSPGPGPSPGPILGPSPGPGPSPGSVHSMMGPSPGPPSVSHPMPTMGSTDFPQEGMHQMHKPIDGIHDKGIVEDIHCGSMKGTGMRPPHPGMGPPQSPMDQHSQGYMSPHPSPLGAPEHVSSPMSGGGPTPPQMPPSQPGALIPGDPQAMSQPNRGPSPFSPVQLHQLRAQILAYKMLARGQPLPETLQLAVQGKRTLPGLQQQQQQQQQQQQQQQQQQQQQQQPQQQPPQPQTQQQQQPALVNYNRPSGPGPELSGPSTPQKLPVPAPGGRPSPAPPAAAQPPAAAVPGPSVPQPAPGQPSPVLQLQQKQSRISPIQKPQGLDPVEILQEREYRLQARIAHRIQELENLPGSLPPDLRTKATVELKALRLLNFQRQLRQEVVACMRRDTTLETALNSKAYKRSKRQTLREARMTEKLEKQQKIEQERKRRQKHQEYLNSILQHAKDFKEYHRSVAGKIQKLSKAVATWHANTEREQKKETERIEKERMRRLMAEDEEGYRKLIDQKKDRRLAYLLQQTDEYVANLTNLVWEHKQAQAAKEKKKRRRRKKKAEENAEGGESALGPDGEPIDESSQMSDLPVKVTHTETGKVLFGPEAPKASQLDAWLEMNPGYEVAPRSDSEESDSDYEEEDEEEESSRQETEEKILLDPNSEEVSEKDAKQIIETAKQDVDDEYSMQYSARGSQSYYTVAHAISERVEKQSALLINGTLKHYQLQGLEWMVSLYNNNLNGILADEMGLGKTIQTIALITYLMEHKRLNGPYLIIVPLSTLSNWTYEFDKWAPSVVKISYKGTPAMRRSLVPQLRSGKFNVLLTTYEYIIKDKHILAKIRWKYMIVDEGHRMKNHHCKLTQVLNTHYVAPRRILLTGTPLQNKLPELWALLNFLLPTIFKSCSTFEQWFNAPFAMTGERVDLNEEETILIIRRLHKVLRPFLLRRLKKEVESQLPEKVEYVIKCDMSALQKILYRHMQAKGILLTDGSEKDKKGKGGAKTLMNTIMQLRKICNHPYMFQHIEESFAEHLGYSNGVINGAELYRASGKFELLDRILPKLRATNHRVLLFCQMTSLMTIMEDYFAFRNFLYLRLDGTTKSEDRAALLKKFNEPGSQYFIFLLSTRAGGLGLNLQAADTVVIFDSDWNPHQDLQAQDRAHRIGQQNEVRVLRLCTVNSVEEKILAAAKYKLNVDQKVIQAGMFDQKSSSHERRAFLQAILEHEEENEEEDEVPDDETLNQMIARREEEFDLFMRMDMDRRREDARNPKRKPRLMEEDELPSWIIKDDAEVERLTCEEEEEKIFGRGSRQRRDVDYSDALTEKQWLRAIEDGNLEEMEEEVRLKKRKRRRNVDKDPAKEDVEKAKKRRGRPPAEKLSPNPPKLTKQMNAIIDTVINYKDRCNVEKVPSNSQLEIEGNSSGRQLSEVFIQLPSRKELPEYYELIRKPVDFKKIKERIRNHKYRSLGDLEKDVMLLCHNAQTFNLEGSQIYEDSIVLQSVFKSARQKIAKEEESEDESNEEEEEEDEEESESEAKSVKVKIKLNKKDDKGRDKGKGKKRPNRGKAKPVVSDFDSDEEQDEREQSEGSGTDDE
# Cytochrome P450 2C9, sequence (P11712 whole entry): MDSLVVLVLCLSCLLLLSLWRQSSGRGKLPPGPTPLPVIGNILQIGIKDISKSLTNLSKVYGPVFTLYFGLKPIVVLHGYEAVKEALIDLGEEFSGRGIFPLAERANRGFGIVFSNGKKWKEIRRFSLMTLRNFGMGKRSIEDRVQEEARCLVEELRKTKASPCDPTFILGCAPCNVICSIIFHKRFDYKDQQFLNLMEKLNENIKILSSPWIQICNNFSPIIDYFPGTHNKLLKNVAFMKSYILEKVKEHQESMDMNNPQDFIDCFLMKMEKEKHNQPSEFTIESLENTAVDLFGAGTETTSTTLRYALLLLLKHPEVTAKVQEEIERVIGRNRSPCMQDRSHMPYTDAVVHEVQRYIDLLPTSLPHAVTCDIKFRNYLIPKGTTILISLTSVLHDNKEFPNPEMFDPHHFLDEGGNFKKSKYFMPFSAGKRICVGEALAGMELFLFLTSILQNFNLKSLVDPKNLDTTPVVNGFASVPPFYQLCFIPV
# Cytochrome P450 3A4, sequence (P08684 whole entry): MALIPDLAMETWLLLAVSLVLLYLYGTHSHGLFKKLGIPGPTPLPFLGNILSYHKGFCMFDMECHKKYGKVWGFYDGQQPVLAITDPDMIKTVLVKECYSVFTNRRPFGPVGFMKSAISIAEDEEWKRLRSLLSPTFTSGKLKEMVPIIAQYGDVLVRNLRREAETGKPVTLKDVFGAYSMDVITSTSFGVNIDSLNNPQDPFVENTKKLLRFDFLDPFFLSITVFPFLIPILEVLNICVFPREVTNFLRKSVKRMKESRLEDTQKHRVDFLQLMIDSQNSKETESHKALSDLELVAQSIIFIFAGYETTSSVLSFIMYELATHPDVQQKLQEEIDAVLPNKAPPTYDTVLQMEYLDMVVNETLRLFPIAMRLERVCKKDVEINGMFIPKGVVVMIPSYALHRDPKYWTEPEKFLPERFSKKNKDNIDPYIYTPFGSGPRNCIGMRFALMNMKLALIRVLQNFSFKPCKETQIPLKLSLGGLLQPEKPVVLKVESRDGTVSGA
compound,measurement,setting,value
Cc1ncsc1-c1ccc([C@H](CN2CCOCC2)NC(=O)[C@@H]2C[C@@H](O)CN2C(=O)[C@@H](n2cc([C@H]3CC[C@H](CN4CCC(c5ccc6c(c5)-n5c(nc(=O)c7c(Cl)cccc75)C65CCCCC5)CC4)CC3)nn2)C(C)(C)C)cc1,concentration at 96 h,[1],6.8 ng/mL
same,concentration at 24 h,[2],400 ng/mL
same,concentration at 96 h,[3],268 ng/mL
same,concentration at 168 h,[4],169 ng/mL
same,IC50,[5],42.2 nM
same,GI50,SK-MEL-5,1.5 nM
same,GI50,[6],2.2 nM
same,GI50,[7],9.8 nM
same,GI50,[8],4.8 nM
same,GI50,SK-MEL-28 [9],> 10000 nM
same,GI50,[10],> 10000 nM
same,Imax,[11],80%
same,Imax,[12],86%
same,Imax,[13],71%
same,Imax,NCI-H1792,80%
same,Imax,SK-MEL-28 [14],55%
same,Imax,[15],65%
same,half-life,[16],8.4 h
same,Cmax,[17],2230 ng/mL
same,half-life,[18],6.3 h
same,Vd,[19],0.9 L/kg
same,clearance,[20],22 mL/min/kg
same,concentration at 6 h,[21],608 ng/mL
same,concentration at 168 h,[22],169 ng/mL
same,concentration at 24 h,[23],139 ng/mL
same,concentration at 168 h,[24],19 ng/mL
same,concentration at 96 h,[25],1640 ng/mL
same,half-life,[26],> 1 h
same,half-life,[27],> 2 h
same,half-life,[28],> 2 h
same,IC50,Cytochrome P450 1A2,> 100000 nM
same,IC50,Cytochrome P450 2C9,> 100000 nM
same,IC50,Cytochrome P450 3A4,> 100000 nM
same,Activity,[29],Non-toxic
same,Activity,[30],Non-toxic
same,Activity,NCI-H838,inactive
